Reference: patent US9486449B2, “Cancer therapy” (priority 2007, dated 2016)
Values joined by “and” are separate entries in the source; they are usually repeats but may differ in a detail not shown here. Identical values can stand only once. Counter-ions that a name gives are not always drawn.

Legend:
[1] = biological target: T1, binding of γ-tubulin to kinesin-14/HSET (Homo sapiens, UniProt Q9BW19); test: Co-IP of kinesin-14/HSET with γ-tubulin in MDA-MB-231 cells; format: cell-based; details: 48 hours, PJ-34 20 μM, Tiq-A 100 μM, Phen(6) 50 μM
T1 sequence (Q9BW19 1-673): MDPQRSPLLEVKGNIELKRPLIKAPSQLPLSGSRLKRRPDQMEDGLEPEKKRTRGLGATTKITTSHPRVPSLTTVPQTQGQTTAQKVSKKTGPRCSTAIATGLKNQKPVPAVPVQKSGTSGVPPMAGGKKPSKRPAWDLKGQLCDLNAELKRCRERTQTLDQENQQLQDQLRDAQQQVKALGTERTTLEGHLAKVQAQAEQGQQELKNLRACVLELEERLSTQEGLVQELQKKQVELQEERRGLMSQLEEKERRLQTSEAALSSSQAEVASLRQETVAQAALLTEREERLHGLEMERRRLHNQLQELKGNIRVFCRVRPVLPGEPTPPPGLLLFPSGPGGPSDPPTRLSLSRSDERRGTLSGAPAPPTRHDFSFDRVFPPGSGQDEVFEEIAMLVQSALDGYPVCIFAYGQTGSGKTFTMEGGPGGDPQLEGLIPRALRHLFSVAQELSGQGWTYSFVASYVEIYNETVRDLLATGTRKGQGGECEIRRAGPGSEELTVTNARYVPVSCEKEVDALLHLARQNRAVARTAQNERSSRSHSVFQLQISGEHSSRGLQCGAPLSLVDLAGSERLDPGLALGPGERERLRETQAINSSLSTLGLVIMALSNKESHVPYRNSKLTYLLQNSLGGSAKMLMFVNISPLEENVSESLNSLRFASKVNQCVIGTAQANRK
From the text: Thus, PJ-34, Tiq-A and Phen interfered with the co-immunoprecipitation of HSET with γ-tubulin.

α-tubulin with γ-tubulin = test: Co-immunoprecipitation of α-tubulin with γ-tubulin in cancer cells; format: cell-based
PARP-1 = PARP-1 (Homo sapiens, UniProt P09874); details: cited from earlier work; for EC50: read-out: EC50 for PARP1 inhibition
MCF-7 brca1+/+ cells = details: 10 μM, 10 consecutive days; cited from earlier work
[2] = tested on: CAPANI cells (which are deficient in brca2); details: cited from earlier work
[3] = tested on: MCF-7 breast cancer cells; test: Survival of MCF-7 cells after single application (cell count, microscopy); format: cell-based, human; details: for MCF-7 survival: 48 to 72 hours, 10 μM PJ-34, Tiq-A 100 μM, Phen 50 μM; for killing of MCF-7 cells: Example 7, single application 24 h after seeding, Tiq-A 50/100 μM 72 h, Phen 25 μM 48 h / 50 μM 72 h
Protocol: Cells were cultured in 6-wells multi-dish plates (Nunc Denmark). MCF-7 and MDA231 cells were cultured in 6-wells multi-dish plates (Nunc Denmark). MCF-7 and MDA231 cells were maintained in a medium containing DMEM (cat #01055-1A), 10% Horse serum (cat #04-124-1A), 1% L-Glutamine (cat #03-020-1B), and 1% Pen-Strep Ampho (cat #03-033-1B) (Gibco, Invitrogene, purchased from Rhenium, Jerusalem 91035 Israel.
MCF-7 cells were seeded (about 50,000/well) in 6-well plates. […]. […] […].
The effect of PARP inhibitors on MCF-7 and MDA-MB-231 human breast cancer cells was examined (cells were seeded in about 500,000 cells/[…] well in six-well plates). […]. The damage was irreversible. […]. […] […].

[4] = tested on: MDA-MB-231 xenotransplants; test: MDA-MB-231 xenotransplants in nude mice, PJ-34 by subcutaneous osmotic pump; format: in vivo, mouse; details: PJ-34 treated, tumor-free mice
Protocol: Xenotransplants were developed in female CD-1 nu/nu 5 to 6 weeks old. MCF-7 and MDA 231 cells were injected subcutaneously, about 10^7 MCF-7 or MDA231 cells in 150 μl of PBS and 150 μl of Martigel Basement Membrane Matrix Becton Dickinson, Bedford, Mass., USA; In Israel Bactolab Diagnostics). In mice treated with PJ-34, injection was adjacent to subcutaneous osmotic pumps dripping PJ-34 by a slow release. The mice were maintained under specific pathogen-free conditions with access to mouse chow and water ad libitum. […]. Subcutaneous implantation of these pumps was performed before injection by a veterinarian (Dr. Kastel David). All the experiments with nude mice conform to the Guide for the Care and Use of Laboratory Animals published by the NIH (publication No. 85-23, revised 1996). Approval was granted by the Israeli Ministry of Health ethics review board in the Tel-AvivUniversity (M08033).
In vivo experiments were carried out in nude female mice (nu/nu) injected subcutaneously with MCF-7 or MDA-MB-231 cells (FIG. 15). […]. In the control nude mice, pumps contained only PBS, or pumps were not implanted. Each mouse was injected subcutaneously with approximately 10^7 MCF-7 or MDA-MB-231 cells dispersed in Matrigel. Tumors developed within 6 to 7 weeks in the control mice injected with MCF-7 cells and within 10 days in the control mice injected with MDA231 cells. […]

[5] = Tolerability of slow-release PJ-34 in nude mice; format: in vivo
Protocol: . In vivo experiments were carried out in nude female mice (nu/nu) injected subcutaneously with MCF-7 or MDA-MB-231 cells (FIG. 15). […]. In the control nude mice, pumps contained only PBS, or pumps were not implanted. Each mouse was injected subcutaneously with approximately 10^7 MCF-7 or MDA-MB-231 cells dispersed in Matrigel. Tumors developed within 6 to 7 weeks in the control mice injected with MCF-7 cells and within 10 days in the control mice injected with MDA231 cells. One mouse died 3 weeks after being injected with MDA-MB-231 cells. […]

[6] = tested on: extra-centrosomes de-clustering in human cancer cells; test: Extra-centrosomes de-clustering; format: cell-based
U-87 Glioblastoma cells = test: Viability of U-87 glioblastoma cells (FACS); format: cell-based, human; details: 0.5-30 μM, single application; 72 and 96 h (PJ-34), 96 h (Phen, Tiq-A)
Protocol: The malignant U-87 Glioblastoma cells were incubated with these molecules applied once 24 hours after seeding. Cell viability was measured by FACS. The results of 3 different experiments carried in duplicates are presented.

[7] = tested on: MDA-MB-231 xenotransplants; test: MDA-MB-231 xenotransplants in nude mice, PJ-34 intra-peritoneal; format: in vivo, mouse; details: 50 mg/kg PJ-34 i.p. daily for 14 days, started at palpable tumors; individual treated mice (untreated 750 and 850); HCl
Protocol: In vivo experiments were carried out in nude female mice (nu/nu) injected subcutaneously with MDA-MB-231 cells (FIG. 32). […] About 10^6 cells were injected in 100 μl of MEM (Gibco, Rhenium, Jerusalem Israel) and 100 μl of Matrigel Basement Membrane Matrix (Becton Dickinson, Bedford, Mass., USA; In Israel, Bactolab Diagnostics). Two weeks after injection with MDA-MB-231 cells, palpable (50-80 mm^3) tumors developed in all the female nude mice. One pair of mice remained un-treated. […] Tumors' size was measured every day in all the mice (both treated and untreated). The treated mice were photographed on the first day and on the last day of treatment. Tumor sizes were 750 mm^3 and 850 mm^3 in the untreated mice, versus 130 mm^3 and 150 mm^3 in the treated mice.

brain cortical neurons = test: Effect on quiescent cells: brain cortical neurons; format: cell-based; details: 10 to 30 μM PJ-34, 100 μM Tiq-A, 50 μM Phen
cardiomyocytes = test: Effect on quiescent cells: cardiomyocytes; format: cell-based; details: 10 to 30 μM PJ-34, 100 μM Tiq-A, 50 μM Phen
[8] = tested on: MDA-MB-231 breast cancer cells; test: Survival of MDA-MB-231 cells after single application
From the text: Each value is an average value of three measurements obtained in three different experiments.

[9] = tested on: HCC1937 (triple negative, BRCA deficient) human breast cancer cells; test: Combination of MEK and PARP inhibitors on HCC1937 cells; format: cell-based; details: 48 hours; PJ-34 5 or 10 μM or Tiq-A 50 μM with 5 μM U0126
HSET = biological target: T2, HSET (Homo sapiens, UniProt Q9BW19); test: Post translational modification of HSET in MDA-MB-231 cells (pI shift, 2-D gel electrophoresis); format: cell-based; details: ABT888 at 5-20 μM
T2 sequence (Q9BW19 1-673): T1 sequence (Q9BW19 1-673)
Protocol: Post translational modifications of HSET in MDA-MB-231 breast cancer cells (FIG. 24B-I) were measured by the shifts in its isoelectric point (pI). […] Also, HSET is not modified in normal epithelial cells MCF10A. The vertical lines mark the point of loading of the proteins including HSET in the cell extracts. The arrows mark the shifted pI of HSET. In untreated MDA-MB-231 cells, the largest shift in pI of HSET was to pH 5.6 in the untreated MDA-MB-231 cells.

PARP-1, sequence (P09874 whole entry, species assumed): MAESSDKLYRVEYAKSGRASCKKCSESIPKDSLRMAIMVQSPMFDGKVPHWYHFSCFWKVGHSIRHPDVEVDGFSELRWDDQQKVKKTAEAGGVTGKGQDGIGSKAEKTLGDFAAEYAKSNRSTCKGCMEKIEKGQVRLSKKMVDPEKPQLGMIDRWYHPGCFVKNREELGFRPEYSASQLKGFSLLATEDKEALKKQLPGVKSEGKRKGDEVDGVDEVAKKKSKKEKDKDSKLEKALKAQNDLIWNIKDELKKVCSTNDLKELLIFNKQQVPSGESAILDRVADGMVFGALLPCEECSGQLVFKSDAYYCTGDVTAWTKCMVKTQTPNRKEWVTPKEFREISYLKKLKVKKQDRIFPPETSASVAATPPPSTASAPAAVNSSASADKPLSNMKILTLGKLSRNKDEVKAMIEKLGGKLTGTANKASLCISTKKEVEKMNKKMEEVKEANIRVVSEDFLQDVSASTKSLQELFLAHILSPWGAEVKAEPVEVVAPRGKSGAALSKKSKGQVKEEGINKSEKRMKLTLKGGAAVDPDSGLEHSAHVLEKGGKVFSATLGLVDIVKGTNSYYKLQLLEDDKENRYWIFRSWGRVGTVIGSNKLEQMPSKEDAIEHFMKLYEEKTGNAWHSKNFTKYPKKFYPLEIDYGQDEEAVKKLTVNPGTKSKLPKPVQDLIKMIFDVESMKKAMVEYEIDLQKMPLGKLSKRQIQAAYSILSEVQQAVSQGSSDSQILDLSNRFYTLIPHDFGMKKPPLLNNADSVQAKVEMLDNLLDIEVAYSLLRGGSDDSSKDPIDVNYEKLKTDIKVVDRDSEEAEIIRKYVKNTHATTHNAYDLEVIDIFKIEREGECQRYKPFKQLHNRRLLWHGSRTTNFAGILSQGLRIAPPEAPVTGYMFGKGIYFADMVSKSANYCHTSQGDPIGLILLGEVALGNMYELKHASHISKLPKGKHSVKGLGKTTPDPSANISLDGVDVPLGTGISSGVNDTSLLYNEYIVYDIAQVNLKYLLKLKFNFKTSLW

## C[C@]1(c2nc3c(C(N)=O)cccc3[nH]2)CCCN1 [ABT888, reference compound]
[1]
  binding of γ-tubulin to kinesin-14/HSET: did not affect the binding
α-tubulin with γ-tubulin
  co-immunoprecipitation of α-tubulin with γ-tubulin: not

## CN(C)Cc1ccc(-c2nc3cccc4c3n2CCNC4=O)cc1 [AG14361, reference compound]
PARP-1; PARP-1
  Ki: < 5 nM
MCF-7 brca1+/+ cells
  cells eradicated: 50%

## O=C1CCC(=O)N1c1cc(Cc2n[nH]c(=O)c3ccccc23)ccc1F [KU0058684]
[2]
  inhibition of CAPANI cells: inhibited

## Cc1nc2c(O)cccc2c(=O)[nH]1 [NU1025]
[2]
  inhibition of CAPANI cells: not inhibited

## CN(C)CC(=O)Nc1ccc2[nH]c(=O)c3ccccc3c2c1 [PJ-34, N-(6-oxo-5,6-dihydro-phenanthridin-2-yl)-N,N-dimethylacetamide, HCl]
[3]; 48 hours after single application of 10-20 μM PJ-34
  cell death: more than 99.5%
[3]; 48 hours of incubation with 10 μM PJ-34
  MCF-7 cells eradicated: More than 99%
[4]
  survival of the other 3 treated mice: more than 4 months
[5]; 3 months after 14-day osmotic pump treatment (Example 6)
  viability, growth or behavior of the mice: did not affect viability, growth or behavior
[5]; 14-day slow release of PJ-34, follow-up periods (Example 11)
  vitality, growth, development, or any other behavior of treated mice: did not affect the vitality, growth, development, or any other behavior
[6]
  concentration at which PJ-34 acts as centrosomes de-clustering agent: above 20 microM
U-87 Glioblastoma cells
  cytotoxicity in glioblastoma cancer cells: cytotoxic in glioblastoma cancer cells at high concentrations
[7]
  Tumor sizes: 130 mm^3 and 150 mm^3

## O=c1[nH]c2ccccc2c2ccccc12 [Phen, 6-(5H)-phenanthridinone]
[3]
  MCF-7 survival: did not survive
  killing of MCF-7 cells: efficient in killing MCF-7 cells
Brain cortical neurons
  impairment of quiescent cells: not impaired at all
cardiomyocytes
  impairment of quiescent cells: not impaired at all
[1]
  binding of γ-tubulin to kinesin-14/HSET: interfered with the binding
U-87 Glioblastoma cells
  cytotoxicity in glioblastoma cancer cells: cytotoxic in glioblastoma cancer cells at high concentrations
PARP-1
  EC50: 120 nM
[8]
  killing of MDA-MB-231 breast cancer cells: efficient killing

## O=c1[nH]c2sccc2c2ccccc12 [Tiq-A, 4H-thieno[2,3-c]isoquinolin-5-one]
[3]
  MCF-7 survival: did not survive
  killing of MCF-7 cells: efficient in killing MCF-7 cells
Brain cortical neurons
  impairment of quiescent cells: not impaired at all
cardiomyocytes
  impairment of quiescent cells: not impaired at all
[9]
  effect of combination with MEK inhibitor U0126 versus each inhibitor alone: synergistic effect
HSET
  post translational modification of HSET (pI shift): prevent the post translational modification
[1]
  binding of γ-tubulin to kinesin-14/HSET: interfered with the binding
U-87 Glioblastoma cells
  cytotoxicity in glioblastoma cancer cells: cytotoxic in glioblastoma cancer cells at high concentrations
PARP-1
  EC50: 450 nM
[8]
  killing of MDA-MB-231 breast cancer cells: efficient killing
